# Results taken from patent US20240122180A1, “FUNGICIDAL HALOMETHYL KETONES AND HYDRATES AND THEIR MIXTURES” (FMC Corporation, priority 2020, published 2024).
# Marks after values point to notes of the source that are not given here.
# What was measured:
# Type in all cases: in vivo
# Details in all cases: 100 = 100% disease control
# [1] = test system: Phakopsora pachyrhizi (the causal agent of Asian soybean rust); assay: Test A: preventive spray on soybean seedlings, visual disease rating (100 = 100% control; * 50 ppm, ** 10 ppm, *** 250 ppm)
# Procedure, shortened: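 Soybean seedlings sprayed to run-off with compound suspended in acetone/water with 250 ppm PEG400 surfactant, inoculated next day with P. pachyrhizi spores. Kept 24 h saturated at 22 °C, then 8 days at 22 °C before visual rating of disease control (0-100) relative to controls.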
# [2] = test system: Puccinia recondita f. sp. tritici (the causal agent of wheat leaf rust); assay: Test B: preventive spray on wheat seedlings, disease rating (100 = 100% control; * 50 ppm, ** 10 ppm, *** 250 ppm)
# Procedure, shortened: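 Wheat seedlings sprayed to run-off with compound in acetone/water (50/50) containing 250 ppm PEG400, inoculated next day with Puccinia recondita f. sp. tritici spores. Held 24 h saturated at 20° C, then 6 days at 20° C; disease control rated 0–100 relative to controls.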
# [3] = test system: Uncinula necator (the causal agent of grape powdery mildew); assay: Test C: preventive spray on grape seedlings, disease rating (100 = 100% control; * 50 ppm, ** 10 ppm, *** 250 ppm)
# Excerpt: General protocol for preparing test suspensions for Tests A-E: the test compounds were first dissolved in acetone in an amount equal to 3% of the final volume and then suspended at the desired concentration (in ppm) in acetone and purified water (50/50 mix by volume) containing 250 ppm of the surfactant […] (polyhydric alcohol esters). The resulting test suspensions were then used in Tests A-E.
# The test solution was sprayed to the point of run-off on grape seedlings. The following day the seedlings were inoculated with a spore suspension of Uncinula necator (the causal agent of grape powdery mildew) and incubated in a growth chamber at 20° C. for 12 days, after which time disease ratings were made.
# Results for Tests A-E are given in Table A. In the Table, a rating of 100 indicates 100% disease control and a rating of 0 indicates no disease control (relative to the controls). An asterisk “*” or a double asterisk “**” or a triple asterisk “***” next to the rating value indicates a 50 ppm, 10 ppm and 250 ppm test suspension was used, respectively. A dash (-) indicates the compound was not tested.
# [4] = test system: Zymoseptoria tritici (the causal agent of wheat leaf blotch); assay: Test D: preventive spray on wheat seedlings, disease rating (100 = 100% control; * 50 ppm, ** 10 ppm, *** 250 ppm)
# Procedure, shortened: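 Compounds first dissolved in acetone (3% of final volume), then suspended in 50/50 acetone/water with 250 ppm PEG400 and sprayed to run-off on wheat seedlings; Z. tritici spores inoculated next day. Incubated saturated at 24° C. 48 h, then 20° C. 17 days; disease control rated 0–100 versus controls.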
# [5] = test system: Blumeria graminis f. sp. tritici (the causal agent of wheat powdery mildew); assay: Test E: preventive spray on wheat seedlings, visual disease rating (100 = 100% control; * 50 ppm, ** 10 ppm, *** 250 ppm)
# Procedure, shortened: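 Test suspension (3% acetone, acetone/water 50/50, 250 ppm PEG400) sprayed to run-off on wheat seedlings; inoculated next day with powdery mildew spore dust and kept 8 days at 20 °C. Visual rating, 100 = full and 0 = no control relative to untreated.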
# [6] = 10 ppm test suspension, soybean seedlings
# [7] = 10 ppm test suspension, wheat seedlings
# [8] = 250 ppm test suspension, grape seedlings
# [9] = 250 ppm test suspension, wheat seedlings
# [10] = 10 ppm test suspension, 0 = no control
# [11] = 250 ppm test suspension, 0 = no control
# [12] = 50 ppm test suspension, 0 = no control
Structure (SMILES),"Test A disease control rating [1, 10] [%]","Test B disease control rating [2, 10] [%]","Test C disease control rating [3, 11]","Test D disease control rating [4, 11]","Test E disease control rating [5, 11]","Test A disease control rating [1, 12] [%]","Test B disease control rating [2, 12] [%]",further results
C=CCOC(=O)c1cnn(Cc2ccc(O/C=C(\OCC)C(F)(F)F)cc2)c1 [compound 246],,,,,,,,"Test A disease control rating [1, 6]: 100%; Test B disease control rating [2, 7]: 0%; Test C disease control rating [3, 8]: 85*** %; Test D disease control rating [4, 9]: 12*** %; Test E disease control rating [5, 9]: 90*** %"
O=C(NCC1CC1)c1cnc(Cc2ccc(OCC(O)(O)C(F)(F)F)cc2)o1 [compound 247],,,,,,,,"Test A disease control rating [1, 6]: 13%; Test B disease control rating [2, 7]: 0%; Test C disease control rating [3, 8]: 21*** %; Test D disease control rating [4, 9]: 79*** %; Test E disease control rating [5, 9]: 21*** %"
O=C(NCC1CC1)c1cnc(Cc2ccc(OCC3(C(F)(F)F)OCCO3)cc2)o1 [compound 248],,,,,,,,"Test A disease control rating [1, 6]: 71%; Test B disease control rating [2, 7]: 0%; Test C disease control rating [3, 8]: 62*** %; Test D disease control rating [4, 9]: 93*** %; Test E disease control rating [5, 9]: 89*** %"
CCO/C(=C\Oc1ccc(Cc2ncc(C(=O)NCC3CC3)s2)cc1)C(F)(F)F [compound 254],,,,,,,,"Test A disease control rating [1, 6]: 73%; Test B disease control rating [2, 7]: 0%; Test C disease control rating [3, 8]: 10*** %; Test D disease control rating [4, 9]: 67*** %; Test E disease control rating [5, 9]: 56*** %"
CCO/C(=C\Oc1ccc(Cc2ncc(C(=O)NCC(F)F)o2)cc1)C(F)(F)F [compound 255],,,,,,,,"Test A disease control rating [1, 6]: 89%; Test B disease control rating [2, 7]: 0%; Test C disease control rating [3, 8]: 93*** %; Test D disease control rating [4, 9]: 60*** %; Test E disease control rating [5, 9]: 64*** %"
O=C(NCC1CC1)c1cnc(Cc2ccc(OCC(O)(O)C(F)(F)F)cc2)s1 [compound 256],,,,,,,,"Test A disease control rating [1, 6]: 73%; Test B disease control rating [2, 7]: 0%; Test C disease control rating [3, 8]: 15*** %; Test D disease control rating [4, 9]: 95*** %; Test E disease control rating [5, 9]: 82*** %"
O=C(NCC(F)(F)F)c1cnc(Cc2ccc(OCC3(C(F)(F)F)OCCO3)cc2)o1 [compound 257],54,0,81*** %,35*** %,92*** %,,,
CCO/C(=C\Oc1ccc(Cc2ncc(C(=O)NCC3CC3)o2)cc1)C(F)(F)F [compound 258],96,0,64*** %,13*** %,53*** %,,,
O=C(NCC1CC1)c1cnc(Cc2ccc(OCC3(C(F)(F)F)OCCO3)cc2)s1 [compound 259],25,0,31*** %,88*** %,83*** %,,,
CCO/C(=C\Oc1ccc(Cc2ncc(C(=O)NCC(F)F)s2)cc1)C(F)(F)F [compound 276],13,0,,53*** %,86*** %,,,"Test C disease control rating [3, 12]: 100* %"
CCOC(=O)c1cnn(-c2ccc(O/C=C(\OCC)C(F)(F)F)cc2)c1 [compound 316],,,,,,100,9,"Test C disease control rating [3, 12]: 100%; Test D disease control rating [4, 12]: 2%; Test E disease control rating [5, 12]: 73%"
OC(O)(COc1ccc(Cn2cc(Br)cn2)cc1)C(F)(F)F [compound 322],99,86,48*** %,100*** %,97*** %,,,
CCOC(=COc1ccc(C2CN(C(C)=O)C2)cc1)C(F)(F)F [compound 373],,,56*** %,99*** %,98*** %,81,0,
CCOC(=O)c1cnn(Cc2ccc(O/C=C(\OCC)C(F)(F)F)cc2F)c1 [compound 375],,,66*** %,95*** %,99*** %,100,0,
CCOC(=COc1ccc(OC(=O)c2ccccc2F)cc1)C(F)(F)F [compound 379],,,93*** %,0*** %,21*** %,0,0,
CCS(=O)(=O)N1CC(c2ccc(OCC3(C(F)(F)F)OCCO3)cc2)C1 [compound 382],,,22*** %,4*** %,56*** %,0,0,
CCOC(=COc1ccc(C2CN(S(=O)(=O)CC)C2)cc1)C(F)(F)F [compound 383],,,74*** %,0*** %,0*** %,0,0,
CCO/C(=C\Oc1cccc(Cn2cc(C(=O)NCC3CC3)cn2)c1)C(F)(F)F [compound 393],,,63*** %,69*** %,0*** %,38,0,
CCO/C(=C\Oc1cccc(Cn2cc(C(=O)NCC(F)F)cn2)c1)C(F)(F)F [compound 394],,,75*** %,24*** %,0*** %,0,0,
CCO/C(=C\Oc1cccc(Cn2cc(C(=O)NCC(F)(F)F)cn2)c1)C(F)(F)F [compound 401],0,0,35*** %,0*** %,0*** %,,,
CCO/C(=C\Oc1cccc(Cn2cc(C(=O)N(CC)CC)cn2)c1)C(F)(F)F [compound 404],,,44*** %,11*** %,0*** %,0,0,
CCOC(=O)c1cnn(Cc2ccc(O/C=C(\OCC)C(F)(F)F)c(C)c2)c1 [compound 410],100,0,88*** %,11*** %,13*** %,,,
CCO/C(=C\Oc1ccc(Cn2cc(C(=O)NC3CC3)cn2)cc1)C(F)(F)F [compound 413],0,0,61*** %,90*** %,35*** %,,,
CCO/C(=C\Oc1ccc(Cn2cc(C(=O)NC)cn2)cc1)C(F)(F)F [compound 414],45,0,91*** %,97*** %,90*** %,,,
CCO/C(=C\Oc1cccc(Cn2cc(C(=O)NC(C)C)cn2)c1)C(F)(F)F [compound 415],0,0,9*** %,0*** %,0*** %,,,
CCOC(=O)c1cnn(Cc2ccc(O/C=C(\OCC)C(F)(F)F)c(C#N)c2)c1 [compound 416],,,34*** %,0*** %,0*** %,81,0,
CCO/C(=C\Oc1ccc(Cn2cc(C(=O)NCC(=O)OC)cn2)cc1)C(F)(F)F [compound 427],13,0,5*** %,53*** %,29*** %,,,
CCO/C(=C\Oc1ccc(Cn2cc(C(=O)NC3CCCC3)cn2)cc1)C(F)(F)F [compound 428],0,0,43*** %,2*** %,0*** %,,,
